Measured values taken from patent US7041785B1, “B1-bradykinin receptor antagonists and use thereof” (Université de Sherbrooke, priority 1996, dated 2006).
Non-standard residues stand in square brackets, D forms with d. Residues, ends and D or L forms follow the SMILES beside them. d2Nal = N[C@H](Cc1ccc2ccccc2c1)C(=O)O; dTic = O=C(O)[C@H]1Cc2ccccc2CN1; NMeA = CN[C@@H](C)C(=O)O

Columns and labels:
B2 receptor [1] = molecular target: T1, B2 receptor (Cavia porcellus, UniProt O70526); assay: cell-based; settings: for G.P.I. pA2: vs BK, Inactive = no detectable antagonistic effect at ≦ 10 μg/ml, F.ag. full agonist, P.ag. partial agonist; for G.P.I. α^E: residual agonistic activity at 10 μg/mL in comparison with BK
T1 sequence (O70526 1-372): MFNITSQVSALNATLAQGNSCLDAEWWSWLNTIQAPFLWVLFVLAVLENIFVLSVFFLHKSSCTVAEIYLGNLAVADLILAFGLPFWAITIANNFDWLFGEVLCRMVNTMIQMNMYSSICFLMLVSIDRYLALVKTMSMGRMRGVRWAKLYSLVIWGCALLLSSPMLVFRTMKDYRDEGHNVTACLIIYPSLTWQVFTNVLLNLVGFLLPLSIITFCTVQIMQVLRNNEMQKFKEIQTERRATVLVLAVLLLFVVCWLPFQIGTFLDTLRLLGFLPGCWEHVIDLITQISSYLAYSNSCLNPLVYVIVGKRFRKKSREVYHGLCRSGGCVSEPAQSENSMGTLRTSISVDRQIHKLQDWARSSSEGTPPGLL
Text: (§1) Tissues were taken from New Zealand white rabbits (1.5–2.5 kg) and Dunken Hartley guinea pigs (250–350 g) of either sex, killed by stunning and exsanguination. Umbilical cords were taken from healthy women 22–40 years old after spontaneous delivery at term. The rabbit jugular vein (RbJV), the guinea pig ileum (GPI), two preparations containing B2 receptors, the rabbit aorta (RbA) (B1 receptor) and the human umbilical vein (HUV), a mixed preparation containing both B1 and B2 receptors^10, were used. Helical strips of RbJV treated with 1 μmol/L of captopril to avoid peptide degradation by the angiotensin-converting enzyme (ACE), alias kininase II were prepared according to Gaudreau et al.^11 Helical strips of RbA devoid of endothelium were prepared according to Furchgott and Bhadrakom^12. Longitudinal segments of GPI were prepared with the procedure described by Rang^13. Helical strips of HUV were prepared according to Gobeil et al.^10. The tissues were suspended in 10-ml organ baths containing warm (37EC), oxygenated (95% O2–5% CO2) Krebs solution of the following composition in mmol/L; NaCl: 118.1; KCl: 4.7; CaCl26H2O: 2.5; KH2PO4: 1.2; MgSO47H2O: 1.18; NaHCO3: 25.0 and D-Glucose: 5.5. The RbA and the HUV were stretched with an initial tension of 2 g, whereas the RbJV and the GPI were loaded with 0.5 g. Changes of tension produced by the various agents were measured with Grass isometric transducers (model FT 03C, Grass Instrument Co., Quincy, Mass.). […] Before testing the drugs, the tissues were allowed to equilibrate for 60–120 min during which time the tissues were repeatedly washed and the tension readjusted every 15 min.
(§2) At the beginning of each experiment, a submaximal dose of bradykinin (BK) (9 nmol/L), was applied repeatedly on the RbJV, the GPI or the HUV to ensure that tissues responded with stable contractions. […] A similar protocol was used for the HUV.
(§3) Repeated applications of a singl and double concentration of BK (on RbJV, GPI and HUV) and of desArg^9BK (RbA and HUV) were made in the absence and in presence of the various peptides to evaluate their apparent affinities as antagonists, in terms of pA2 (-log10 of the molar concentration of antagonist that reduces the effect of a double concentration of agonist to that of a single one)^14. The antagonists were applied 10 min before measuring the myotropic effects of either BK (the B2 receptor agonist) or desArg^9BK (the B1 receptor agonist). […] All kinin antagonists were initially applied to tissues at concentration of 10 μg/mL to measure their potential agonistic activities (α^E) in comparison with BK (in the B2 receptor preparations) or desArg^9BK (in the B1 receptor preparations).

B1 receptor = molecular target: T2, B1 receptor (Oryctolagus cuniculus, UniProt P48748); assay: cell-based; settings: for Kb: Rb.A. pA2, apparent affinity as antagonist vs desArg9BK; for Rb.A. α^E: residual agonistic activity at 10 μg/mL in comparison with desArg9BK
T2 sequence (P48748 1-352): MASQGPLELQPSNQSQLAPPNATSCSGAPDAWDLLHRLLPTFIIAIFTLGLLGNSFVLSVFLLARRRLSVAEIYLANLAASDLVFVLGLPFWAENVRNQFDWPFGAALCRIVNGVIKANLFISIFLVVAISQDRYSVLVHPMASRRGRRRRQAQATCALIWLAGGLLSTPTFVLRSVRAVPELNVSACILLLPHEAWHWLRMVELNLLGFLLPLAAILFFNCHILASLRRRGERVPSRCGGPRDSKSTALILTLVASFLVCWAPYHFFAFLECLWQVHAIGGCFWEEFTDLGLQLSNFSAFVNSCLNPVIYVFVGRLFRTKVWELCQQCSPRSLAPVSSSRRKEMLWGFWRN
Text: as §1, §2, §3

[2] = test system: T3, angiotensin-converting enzyme (ACE); assay: Metabolic degradation by purified angiotensin-converting enzyme, HPLC analysis; assay type: in vitro ADME, rabbit; settings: rabbit, isolated enzyme ace, pH 7.5
T3 construct: purified angiotensin-converting enzyme (ACE) from rabbit lungs; purchased Sigma, St-Louis, Mo; host or cells: purified from rabbit lungs
Description: The metabolic stability of various kinin-related peptides was evaluated by incubating the peptide in the presence of purified angiotensin-converting enzyme (ACE) from rabbit lungs (purchased from Sigma, St-Louis, Mo.) dissolved in phosphate buffered saline (PBS) (50 mmol/L, pH 7.5 containing 300 mmoL/L NaCl); the final concentration of enzyme was 45 μg/mL. The experimental protocol for the measurement of ACE activity has been described elsewhere^15,16. Briefly, 200 μmol/L of peptides (40 μL) were placed in a PBS buffer and incubated for 5 min at 37EC before adding 8.5 μL of ACE (total volume of the reaction medium; 190 μL). Samples were withdrawn at 30 min intervals, immersed in boiling water for 5 min, then cooled on ice and centrifuged (5 min) before proceeding to analysis of peptides by high pressure liquid chromatography (HPLC). Results of ACE metabolism are expressed in percent of kinin degradation following the incubation (30 min) of kinin substrates with the enzyme.
Pure peptides and metabolic products were analysed by reverse-phas HPLC on a C18 μBondapak column (4.6 mm×25 cm) (Waters) of 10-μm particle size. The peptides and their fragments were eluted at the rate of 2.0 mL/min. with a linear gradient ranging from 5 to 65% of acetonitrile/TFA 0.05%/water over 20 min. at room temperature. The elution positions of these peptides were determined by following the absorbance at 214 nm. For each assay, 50 μL of the reaction medium (treated or not with ACE) were extracted and injected into the column. Concentrations of the peaks products, different from the peaks of the peptide substrate, were estimated using a computer software program (Baseline 810; Waters) that controlled also all the chromatography operations. Isolated metabolites and substrates were collected and identified by Electrospray mass spectrometry (positive mode).

B2 receptor [3] = molecular target: T4, B2 receptor (Oryctolagus cuniculus, UniProt Q28642); settings: vs BK; captopril 1 μmol/L; Inactive = no detectable antagonistic effect at ≦ 10 μg/ml
T4 sequence (Q28642 1-367): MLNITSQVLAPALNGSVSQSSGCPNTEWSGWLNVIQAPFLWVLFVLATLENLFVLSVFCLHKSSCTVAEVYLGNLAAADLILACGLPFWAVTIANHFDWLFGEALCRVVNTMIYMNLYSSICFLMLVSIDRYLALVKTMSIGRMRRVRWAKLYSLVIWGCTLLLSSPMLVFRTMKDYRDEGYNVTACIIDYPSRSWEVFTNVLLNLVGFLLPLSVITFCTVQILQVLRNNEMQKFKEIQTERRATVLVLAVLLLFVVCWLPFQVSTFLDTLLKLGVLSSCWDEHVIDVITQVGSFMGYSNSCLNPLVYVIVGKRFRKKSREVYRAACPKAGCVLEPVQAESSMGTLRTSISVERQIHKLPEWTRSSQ

B2 receptor [4] = molecular target: T4, B2 receptor; assay: cell-based; settings: residual agonistic activity at 10 μg/mL in comparison with BK
Text: as §1, §2, §3

[5] = antagonist applied 10 min before, Inactive = no detectable antagonistic effect at ≦ 10 μg/ml

| Molecule | G.P.I. pA2 (B2 receptor [1]) | Kb (B1 receptor; [5]) [nM] | metabolised at 0.5 h, 42.1 μmol/L [2] [%] | Rb.J.V. pA2 (B2 receptor [3]) | Kb (B2 receptor [1]) [nM] | G.P.I. α^E (B2 receptor [1]) | Rb.J.V. α^E (B2 receptor [4]) | Rb.A. α^E (B1 receptor) | EC50 (B2 receptor [1]) [nM] | metabolised at 0.5 h [2] [%] | Rb.A. pA2 (B1 receptor; apparent affinity as antagonist vs desArg9BK, antagonist applied 10 min before, Inactive = no detectable antagonistic effect at ≦ 10 μg/ml) |
| --- | --- | --- | --- | --- | --- | --- | --- | --- | --- | --- | --- |
| CC(C)C[C@H](NC(=O)[C@@H]1CCCN1C(=O)[C@H](CO)NC(=O)[C@H](Cc1ccccc1)NC(=O)CNC(=O)[C@@H]1C[C@@H](O)CN1C(=O)[C@@H]1CCCN1C(=O)[C@H](CCCNC(=N)N)NC(=O)[C@@H](N)CCCCN)C(=O)O [Compound 3, Lys(Hyp^3, Leu^8)desArg^9BK] | Inactive | 6.92 | 40 ± 3 | Inactive |  |  |  |  |  |  |  |
| CC(C)C[C@H](NC(=O)[C@@H]1CCCN1C(=O)[C@H](CO)NC(=O)[C@H](Cc1ccccc1)NC(=O)CNC(=O)[C@@H]1C[C@@H](O)CN1C(=O)[C@@H]1CCCN1C(=O)[C@H](CCCNC(=N)N)NC(=O)[C@H](N)CCCNC(=N)N)C(=O)O [Compound 4, D-Arg(Hyp^3, Leu^8)desArg^9BK] |  | 339 | 83 ± 2 | Inactive | > 9550 |  |  |  |  |  |  |
| CC(=O)N[C@@H](CCCCN)C(=O)N[C@@H](CCCNC(=N)N)C(=O)N1CCC[C@H]1C(=O)N1C[C@H](O)C[C@H]1C(=O)NCC(=O)N[C@@H](Cc1ccccc1)C(=O)N[C@@H](CO)C(=O)N1CCC[C@H]1C(=O)N[C@@H](CC(C)C)C(=O)O [Compound 5, AcLys(Hyp^3, Leu^8)desArg^9BK] |  | 178 | 66 ± 1 | Inactive | > 9550 | 0.30 | 0.03 | 0 |  |  |  |
| CC(=O)N[C@@H](CCCCN)C(=O)N[C@@H](CCCNC(=N)N)C(=O)N1CCC[C@H]1C(=O)N1CCC[C@H]1C(=O)NCC(=O)N[C@@H](Cc1ccccc1)C(=O)N[C@@H](CO)C(=O)N1Cc2ccccc2C[C@@H]1C(=O)N[C@@H](CC(C)C)C(=O)O [Compound 11, AcLys(D-Tic^7, Leu^8)desArg^9BK] (Ac-KRPPGFS[dTic]L-OH; C-terminus assumed) |  | 6760 |  | Inactive |  |  | 0.37 | 0 | 1410 | 0 |  |
| CC(=O)N[C@@H](CCCCN)C(=O)N[C@@H](CCCNC(=N)N)C(=O)N1CCC[C@H]1C(=O)N1CCC[C@H]1C(=O)NCC(=O)N[C@@H](Cc1ccccc1)C(=O)N(C)[C@@H](C)C(=O)N1CCC[C@H]1C(=O)N[C@@H](CC(C)C)C(=O)O [Compound 21, AcLys(N-MeAla^6, Leu^8)desArg^9BK, reference compound] (Ac-KRPPGF[NMeA]PL-OH; C-terminus assumed) | Inactive | 282 | 0 | Inactive |  | 0.19 | 0 | 0.01 |  |  |  |
| CC[C@H](C)[C@H](NC(=O)[C@@H](Cc1ccc2ccccc2c1)NC(=O)[C@H](C)N(C)C(=O)[C@H](Cc1ccccc1)NC(=O)CNC(=O)[C@@H]1CCCN1C(=O)[C@@H]1CCCN1C(=O)[C@H](CCCNC(=N)N)NC(=O)[C@H](CCCCN)NC(C)=O)C(=O)O [Compound 22, AcLys(N-MeAla^6, D-βNal^7, IIe^8)desArg^9BK] (Ac-KRPPGF[NMeA][d2Nal]I-OH; C-terminus assumed) | P.ag. | 537 | 0 | Inactive |  |  | 0.03 | 0 |  |  |  |
| D-Arg(Hyp^3, D-Hyp^7(trans propyl), Oic^8)desArg^9BK [Compound 33, reference compound] |  |  |  | 6.99 ± 0.04 |  | 0 | 0 | 0 |  |  | 7.94 ± 0.06 |
